Data as given in patent US20130280269A1, “Manipulation of HSP70 and IRE1Alpha Protein Interactions” (National University of Ireland, priority 2010, published 2013).

Assays:
PC12 cells [1] = assay: Loss of mitochondrial membrane potential (ΔΨm), TMRE staining and flow cytometry; type: cell-based, Rat; conditions: 48 h, thapsigargin 0.25 μM
Protocol: (§1) FIG. 2. Hsp72 prevents ER stress-induced loss of mitochondrial membrane potential and cytochrome c release. (A) The control (Neo) and Hsp72 expressing (Hsp72) PC12 cells were either untreated (Control) or treated with (0.25 μM) Tg for the indicated time and mitochondrial membrane potential was assessed by TRME staining and flow cytometry. A representative image of three independent experiments is shown. (B) The control (Neo) and Hsp72 expressing (Hsp72) PC12 cells were treated (0.25 μM) Tg for indicated time points. Following treatment cells were incubated with TMRE (100 nM). Mitochondrial membrane potential was monitored by measuring the fluorescence intensity at 582 nm (FL2). Average and error bars represent mean±SD from three independent experiments. (C) The control (Neo) and Hsp72 expressing (Hsp72) PC12 cells were treated with (0.25 μM) Tg for the indicated time. Cytosolic extracts were prepared as described in materials and methods and resolved by SDS-PAGE followed by western blotting using antibodies against Cytochrome c and β-actin.
The effect of Hsp72 on the dissipation of ΔΨm and release of cytochrome c to the cytosol upon exposure to ER stress stimuli was evaluated. To quantify ΔΨm, probe tetramethylrhodamine ethyl ester (TMRE, Molecular Probes), a potentiometric fluorescent dye that incorporates into mitochondria in a ΔΨm-dependent manner, was used. Cells were trypsinized and then were either left untreated or treated with 0.25 μM thapsigargin. The cells were then incubated with TMRE for 30 min in the dark and analyzed by flow cytometry using a FACSCalibur instrument. […] The expression of Hsp72 inhibited the loss of ΔΨm (FIG. 2A). At 48 h, loss of ΔΨm was detected in 80-90% of Neo cells treated with thapsigargin or tunicamycin, respectively (FIG. 2B).

PC12 cells [2] = assay: Release of cytochrome c into the cytosol, western blot of cytosolic extracts; type: cell-based, Rat; conditions: 0.25 μM Tg, 24 h
Protocol: as §1
To further study the involvement of mitochondria in ER stress-induced cell death, the release of cytochrome c into the cytosol was assessed. […]

[3] = biological target: T1, wild-type Hsp72 (inducible form of Hsp70), stably expressed in PC12 cells (Homo sapiens (Human), UniProt P0DMV8 2-641, limits assumed); assay: co-immunoprecipitation with HA-agarose from Hsp72-expressing PC12 cells, western blot (FIG. 5C)
T1 construct: Expressed from a plasmid (gift of Dr. Tomomi Gotoh) in rat PC12 cells and tested in cell lysates by co-immunoprecipitation; also called Hsp72 WT; inducible Hsp70
Protocol: FIG. 5. Hsp72 forms a protein complex with IRE1α, and ATPase domain of HSP72 is critical for IRE1α binding. (A) Schematic diagram for IRE1α structure domains and expression constructs. (B) Schematic diagram for Hsp72 structure domains and expression constructs. (C) Hsp72 expressing PC12 cells (Hsp2) were transfected with empty vector (EV) or expression vectors for IRE1α FL-HA or IRE1α ΔC-HA. After 24 h, cells were either left untreated (UT) or treated with (0.25 μM) Tg for 12 h and then the co-precipitation of Hsp72 with IRE1α FL-HA or IRE1α ΔC-HA was evaluated by IP and western blot. (D) PC12 cells expressing the indicated Hsp72 constructs were transfected with IRE1α FL-HA. […] Co-precipitation of wild-type, ΔATPase and ΔEEVD mutant of Hsp72 with IRE1α FL-HA was evaluated by IP and western blot. […] After 48 hr, IRE1α FL-HA was immunoprecipitated and its association with endogenous Hsp72 was assessed by western blot. (F) Endogenous Hsp72 was immunoprecipitated from HEK 293 cells transiently transfected with IRE1α FL-HA expression vector or empty vector (EV), and its association with IRE1α was determined by western blot analysis. […]
Interaction of Hsp72-IRE1α was determined by co-immunoprecipitation assays. […] Protein complexes were extracted by boiling the beads with 2× lane marker buffer and analysed by western blotting as described above using the primary antibody IRE1α (Cell Signalling Cat#3294S). […]

T1 sequence (P0DMV8 2-641 limits assumed): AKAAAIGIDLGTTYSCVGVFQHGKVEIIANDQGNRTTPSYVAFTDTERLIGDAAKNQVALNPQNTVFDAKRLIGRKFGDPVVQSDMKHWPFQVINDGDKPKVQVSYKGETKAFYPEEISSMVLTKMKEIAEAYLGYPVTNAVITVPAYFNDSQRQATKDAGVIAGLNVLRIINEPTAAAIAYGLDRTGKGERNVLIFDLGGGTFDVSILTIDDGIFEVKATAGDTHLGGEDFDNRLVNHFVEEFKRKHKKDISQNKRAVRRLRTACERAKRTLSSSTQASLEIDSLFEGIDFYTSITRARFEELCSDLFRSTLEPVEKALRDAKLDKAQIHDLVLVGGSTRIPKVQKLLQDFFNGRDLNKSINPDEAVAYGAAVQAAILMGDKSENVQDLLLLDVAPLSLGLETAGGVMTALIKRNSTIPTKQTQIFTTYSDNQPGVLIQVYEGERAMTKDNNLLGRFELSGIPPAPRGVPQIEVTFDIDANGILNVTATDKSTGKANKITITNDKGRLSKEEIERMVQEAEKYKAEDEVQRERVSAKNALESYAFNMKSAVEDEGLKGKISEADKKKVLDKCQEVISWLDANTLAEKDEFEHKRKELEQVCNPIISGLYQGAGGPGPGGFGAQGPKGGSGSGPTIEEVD

C/C=C(/C)C(=O)O[C@H]1C(C)=C2[C@H]([C@@H]1OC(=O)CCCCCCC)[C@@](C)(OC(C)=O)C[C@H](OC(=O)CCC)[C@@]1(O)[C@H]2OC(=O)[C@@]1(C)O [thapsigargin]
loss of ΔΨm, cells (PC12 cells [1]; Hsp72 expressing PC12 cells): 50% | loss of ΔΨm, cells (PC12 cells [1]; control (Neo) PC12 cells): 80% | release of cytochrome c induced by thapsigargin (PC12 cells [2]; Hsp72 expressing PC12 cells, compared with Neo cells): significantly reduced | release of cytochrome c from mitochondria to the cytoplasm (PC12 cells [2]; control (Neo) PC12 cells): triggered release of cytochrome c

tunicamycin
loss of ΔΨm, cells (PC12 cells [1]; Hsp72 expressing PC12 cells): 50% | loss of ΔΨm, cells (PC12 cells [1]; control (Neo) PC12 cells): 90%

B1: IRE1α ΔC-HA (enzyme)
chain: IFGSTSTVTLPETLLFVSTLDGSLHAVSKRTGSIKWTLKEDPVLQVPTHVEEPAFLPDPNDGSLYTLGSKNNEGLTKLPFTIPELVQASPCRSSDGILYMGKKQDIWYVIDLLTGEKQQTLSSAFADSLCPSTSLLYLGRTEYTITMYDTKTRELRWNATYFDYAASLPEDDVDYKMSHFVSNGDGLVVTVDSESGDVLWIQNYASPVVAFYVWQREGLRKVMHINVAVETLRYLTFMSGEVGRITKWKYPFPKETEAKSKLTPTLYVGKYSTSLYASPSMVHEGVAVVPRGSTLPLLEGPQTDGVTIGDKGECVITPSTDVKFDPGLKSKNKLNYLRNYWLLIGHHETPLSASTKMLERFPNNLPKHRENVIPADSEKKSFEEVINLVDQTSENAPTTVSRDVEEKPAHAPARPEAPVDSMLKDMATIILSTFLLIGWVAFIITYPLSMHQQQQLQHQQFQKELEKIQLLQQQQQQLPFH
notes: HA-tagged IRE1α lacking the cytosolic C-terminal region; also called IRE1α DC-HA; not shown: HA tag
binding result [3]: no binding
